Source: publication PMC6814738, “Bacterial MgrB peptide activates chemoreceptor Fpr3 in mouse accessory olfactory system and drives avoidance behaviour” (Nature Communications, 2019)
Peptide text beside a SMILES is read from it. * marks the point of attachment. For = O=C*

Tests used:
mouse Fpr3 (Fpr-rs1) [1] = biological target: T1, mouse Fpr3 (Fpr-rs1) (Mus musculus, UniProt O08790); assay: Concentration-response Ca2+ imaging of Fpr3-transfected HEK293T cells (Fig. 2f, h, j); assay type: cell-based; settings: for EC50: Ca2+ responses of Fpr3-transfected HEK293T, Fluo-4/AM, FLIPR, buffer C1 pH 7.2, Fig. 2f, h, j
T1 construct: expressed in transfected cells; host or cells: HEK293T (DSMZ # ACC-635), transient transfection with jetPEI
T1 sequence (O08790 1-351): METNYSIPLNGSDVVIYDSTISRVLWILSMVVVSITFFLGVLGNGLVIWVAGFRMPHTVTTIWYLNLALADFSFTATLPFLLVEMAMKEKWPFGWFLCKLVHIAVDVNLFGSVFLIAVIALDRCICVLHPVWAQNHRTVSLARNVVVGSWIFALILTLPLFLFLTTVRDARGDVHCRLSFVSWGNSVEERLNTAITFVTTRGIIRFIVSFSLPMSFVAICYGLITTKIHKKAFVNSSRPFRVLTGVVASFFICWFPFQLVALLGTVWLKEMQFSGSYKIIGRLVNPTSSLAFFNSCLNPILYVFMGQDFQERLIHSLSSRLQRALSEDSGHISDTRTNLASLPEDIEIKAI
Method: (§1) An Fpr3 gene subcloned from genomic DNA of C57BL/6J mice into pcDNA3.1 (Invitrogen) was used in heterologous experiments[21],[80]. HEK293T (DSMZ # ACC-635) cells were seeded at 20–30% confluence on poly-D-lysine-coated (10 µg/ml in PBS) black 96-well µCLEAR-Plates (Greiner Bio-One). Cells were transfected 24 h later using jetPEI™ (Polyplus-transfection SA) according to the manufacturer’s protocol for 96-well transfections. For Ca^2+ imaging experiments, 0.125 µg of DNA plasmid encoding Fpr3 were cotransfected with equal amounts of a plasmid encoding Gα16, a promiscuous G protein α-subunit. Ca^2+ signals to agonist stimulation were recorded 48 h post transfection using the Ca^2+ indicator dye Fluo-4/AM (Molecular Probes) and a fluorescence imaging plate reader (FLIPR) system (Molecular Devices).
We used custom-made peptides with a length of 6–21 amino acids to screen for agonists. Sequences of fMet peptides were designed according to motifs present at the N-termini of 15,125 specific bacterial proteins as annotated in UniProt. Peptides were chemically synthesised, purified, and verified by mass spectroscopy (MALDI-TOF) by commercial suppliers. […] Source, sequence and purity of each peptide are listed in Supplementary Data 1. Lyophilised peptides were routinely dissolved in the Ca^2+ imaging assay buffer C1 (130 mM NaCl, 10 mM HEPES, 5 mM KCl, 2 mM CaCl2, 5 mM glucose, pH 7.2) as 0.2–1 mM stock solutions and kept in small aliquots at −20 °C until use.

mouse Fpr3 (Fpr-rs1) [2] = biological target: T1, mouse Fpr3 (Fpr-rs1); assay: Heterologous expression / high-throughput Ca2+ imaging agonist screen and sequence selectivity of Fpr3 (Fig. 1a, 2c-e, 2g, 2i); assay type: cell-based; settings: 10 µM; Fpr3-transfected HEK293T; Fig. 2g
Method: as §1, with “Devices). Cotransfection of a plasmid encoding Gα16 with an empty vector used to subclone Fpr3 gave no agonist-evoked Ca^2+ responses.” for “Devices).”
We used custom-made peptides with a length of 6–21 amino acids to screen for agonists. Sequences of fMet peptides were designed according to motifs present at the N-termini of 15,125 specific bacterial proteins as annotated in UniProt. Peptides were chemically synthesised, purified, and verified by mass spectroscopy (MALDI-TOF) by commercial suppliers. Purity of all peptides was >95%. Source, sequence and purity of each peptide are listed in Supplementary Data 1. Lyophilised peptides were routinely dissolved in the Ca^2+ imaging assay buffer C1 (130 mM NaCl, 10 mM HEPES, 5 mM KCl, 2 mM CaCl2, 5 mM glucose, pH 7.2) as 0.2–1 mM stock solutions and kept in small aliquots at −20 °C until use. […] The sequences of these peptides exist in proteins from the following bacterial strains[21]: Psychromonas ingrahamii that belongs to a marine ice water microbial community, Desulfotomaculum reducens that is found in deep freshwater lakes, and Pseudomonas grimontii, a plant pathogen. As mice are unlikely to encounter these strains in their natural habitat, these findings are probably not of biological relevance.

Molecule | EC50 (mouse Fpr3 (Fpr-rs1) [1]) [nM] | Fpr3 activation by MgrB 9-, 12- and 21-residue variants, in words (mouse Fpr3 (Fpr-rs1) [2]) | signals in concentration-response, in words (mouse Fpr3 (Fpr-rs1) [1]; Fpr3-transfected HEK293T, Fig. 2h)
CC[C@H](C)[C@H](NC(=O)[C@H](CO)NC(=O)[C@H](Cc1c[nH]c2ccccc12)NC(=O)[C@H](CCCCN)NC(=O)[C@H](Cc1ccccc1)NC(=O)[C@H](CCCCN)NC(=O)[C@H](CCCCN)NC(=O)[C@H](CCSC)NC=O)C(=O)O (For-MKKFKWSI-OH) | 800 | – | –
CC[C@H](C)[C@H](NC(=O)CNC(=O)[C@H](CC(C)C)NC(=O)[C@@H](NC(=O)[C@@H](NC(=O)[C@H](Cc1c[nH]c2ccccc12)NC(=O)[C@H](CCCNC(=N)N)NC(=O)[C@H](Cc1ccccc1)NC(=O)[C@H](CCCCN)NC(=O)[C@H](CCCCN)NC(=O)[C@H](CCSC)NC=O)C(C)C)C(C)C)C(=O)N[C@H](C(=O)O)C(C)C (For-MKKFRWVVLGIV-OH) | 210 | – | –
f-MKKFRWVVLGIVVVVCLLLWAQ [21-mer peptide] | – | failed to activate Fpr3 | No signals were obtained
